Results from PubChem BioAssay AID248 (DTP/NCI, 2004).
Several values for one entry are separate records, joined by “and”; a condition that tells them apart may be missing. Equal entries are not always repeated. Toxic doses and inconclusive results are not listed. Cut-off read from the data, not from the text of the source: active = T/C of 150% or more; inactive = T/C below 125%.

System: L1210 leukemia ip in BDF1 mice, survival T/C
Assay: NCI In Vivo Anticancer Drug Screen. Data for tumor model L1210 Leukemia (intraperitoneal) in B6D2F1 (BDF1) mice
Details: endpoint: mean survival time, higher = longer survival
In short: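 Antitumor effect is assessed in tumor-bearing animals. Survival in the compound arm is compared with a vehicle-dosed control arm and expressed as their quotient.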

[1] = dose: 100.0 mg/kg/injection, schedule: Q04DX003 (ip), vehicle: Klucel (hydroxypropylcellulose) (HPC)
[2] = dose: 200.0 mg/kg/injection, schedule: Q04DX003 (ip), vehicle: Klucel (hydroxypropylcellulose) (HPC)
[3] = dose: 400.0 mg/kg/injection, schedule: Q04DX003 (ip), vehicle: Klucel (hydroxypropylcellulose) (HPC)
[4] = dose: 100.0 mg/kg/injection, schedule: Q01DX001 (ip), vehicle: saline
[5] = dose: 50.0 mg/kg/injection, schedule: Q01DX009 (ip), vehicle: other
[6] = dose: 100.0 mg/kg/injection, schedule: Q01DX009 (ip), vehicle: other
[7] = dose: 200.0 mg/kg/injection, schedule: Q01DX009 (ip), vehicle: other
[8] = dose: 100.0 mg/kg/injection, schedule: Q01DX001 (ip), vehicle: Klucel (hydroxypropylcellulose) (HPC)
[9] = dose: 200.0 mg/kg/injection, schedule: Q01DX001 (ip), vehicle: Klucel (hydroxypropylcellulose) (HPC)
[10] = dose: 400.0 mg/kg/injection, schedule: Q01DX001 (ip), vehicle: Klucel (hydroxypropylcellulose) (HPC)
[11] = dose: 100.0 mg/kg/injection, schedule: Q01DX009 (ip), vehicle: saline
[12] = dose: 100.0 mg/kg/injection, schedule: Q04DX002 (ip), vehicle: Klucel (hydroxypropylcellulose) (HPC)
[13] = dose: 200.0 mg/kg/injection, schedule: Q04DX002 (ip), vehicle: Klucel (hydroxypropylcellulose) (HPC)
[14] = dose: 100.0 mg/kg/injection, schedule: Q01DX009 (ip), vehicle: Klucel (hydroxypropylcellulose) (HPC)
[15] = dose: 100.0 mg/kg/injection, schedule: Q01DX009 (ip), vehicle: saline with Tween-80
[16] = dose: 200.0 mg/kg/injection, schedule: Q01DX009 (ip), vehicle: saline with Tween-80
[17] = dose: 50.0 mg/kg/injection, schedule: Q01DX009 (ip), vehicle: saline with Tween-80
[18] = dose: 200.0 mg/kg/injection, schedule: Q01DX001 (ip), vehicle: saline with Tween-80
[19] = dose: 400.0 mg/kg/injection, schedule: Q01DX001 (ip), vehicle: saline with Tween-80

Measured: T/C

Cc1ccc(Nc2cc(=O)[nH]c(=O)[nH]2)c(C)c1
inactive: dose: 18.75 mg/kg/injection, schedule: Q01DX001 (ip), vehicle: saline with Tween-80 97 % of control | dose: 37.5 mg/kg/injection, schedule: Q01DX001 (ip), vehicle: saline with Tween-80 90 % of control | dose: 75.0 mg/kg/injection, schedule: Q01DX001 (ip), vehicle: saline with Tween-80 90 % of control

C=CCS(=O)(=O)c1ccc(C)cc1
inactive: [1] 102 % of control | [2] 100 % of control | [3] 100 % of control

C=NNC(=O)c1ccc(OC)cc1
inactive: dose: 50.0 mg/kg/injection, schedule: Q01DX001 (ip), vehicle: carboxymethylcellulose (CMC) 96 % of control | dose: 100.0 mg/kg/injection, schedule: Q01DX001 (ip), vehicle: carboxymethylcellulose (CMC) 96 % of control | dose: 200.0 mg/kg/injection, schedule: Q01DX001 (ip), vehicle: carboxymethylcellulose (CMC) 93 % of control | dose: 400.0 mg/kg/injection, schedule: Q01DX001 (ip), vehicle: carboxymethylcellulose (CMC) 93 % of control

CC(=O)Nc1cccc(C(=O)O)c1O
inactive: [4] 100 % of control | dose: 200.0 mg/kg/injection, schedule: Q01DX001 (ip), vehicle: saline 105 % of control | dose: 400.0 mg/kg/injection, schedule: Q01DX001 (ip), vehicle: saline 100 % of control

COc1ccc2c(c1)c(=NCCCCN=c1c3cc(OC)ccc3n(O)c3cc(Cl)ccc13)c1cc(Cl)ccc1n2O
inactive: dose: 12.5 mg/kg/injection, schedule: Q01DX009 (ip), vehicle: other 93 % of control | dose: 25.0 mg/kg/injection, schedule: Q01DX009 (ip), vehicle: other 93 % of control | [5] 93 % of control and 101 % of control | [6] 101 % of control | [7] 101 % of control

CCCCSc1ncnc2nc[nH]c12
inactive: dose: 75.0 mg/kg/injection, schedule: Q01DX001 (ip), vehicle: other 103 % of control | dose: 150.0 mg/kg/injection, schedule: Q01DX001 (ip), vehicle: other 95 % of control | dose: 300.0 mg/kg/injection, schedule: Q01DX001 (ip), vehicle: other 106 % of control

N#C/C(=C1/C(=O)c2ccccc2-c2c1cccc2[N+](=O)[O-])c1ccccc1
inactive: dose: 75.0 mg/kg/injection, schedule: Q01DX001 (ip), vehicle: carboxymethylcellulose (CMC) 92 % of control | dose: 150.0 mg/kg/injection, schedule: Q01DX001 (ip), vehicle: carboxymethylcellulose (CMC) 94 % of control | dose: 300.0 mg/kg/injection, schedule: Q01DX001 (ip), vehicle: carboxymethylcellulose (CMC) 97 % of control

O=C1OC(c2ccccc2)CC1NCc1ccccc1 (stereo unspecified)
inactive: [8] 98 % of control | [9] 101 % of control | [10] 96 % of control

C1CN(CCN2CCOCC2)CCO1
inactive: [11] 100 % of control | dose: 200.0 mg/kg/injection, schedule: Q01DX009 (ip), vehicle: saline 93 % of control | dose: 400.0 mg/kg/injection, schedule: Q01DX009 (ip), vehicle: saline 96 % of control

CCCCCCCCCCCCCCCCCCNC(=O)Nc1ccc(C)c(Cl)c1
inactive: [12] 90 % of control | [13] 93 % of control

Clc1ncn[nH]1
inactive: dose: 100.0 mg/kg/injection, schedule: Q04DX003 (ip), vehicle: saline sonified 101 % of control | dose: 200.0 mg/kg/injection, schedule: Q04DX003 (ip), vehicle: saline sonified 106 % of control | dose: 400.0 mg/kg/injection, schedule: Q04DX003 (ip), vehicle: saline sonified 100 % of control

Clc1ccc(SSC(Cl)(Cl)Cl)cc1
inactive: dose: 25.0 mg/kg/injection, schedule: Q01DX009 (ip), vehicle: Klucel (hydroxypropylcellulose) (HPC) 98 % of control | dose: 50.0 mg/kg/injection, schedule: Q01DX009 (ip), vehicle: Klucel (hydroxypropylcellulose) (HPC) 88 % of control | [14] 93 % of control

CC(=O)OCc1cc2ccccc2nc1C
inactive: [15] 110 % of control | dose: 100.0 mg/kg/injection, schedule: Q04DX003 (ip), vehicle: saline with Tween-80 102 % of control | [16] 104 % of control | dose: 200.0 mg/kg/injection, schedule: Q04DX003 (ip), vehicle: saline with Tween-80 96 % of control | dose: 400.0 mg/kg/injection, schedule: Q01DX009 (ip), vehicle: saline with Tween-80 98 % of control | dose: 400.0 mg/kg/injection, schedule: Q04DX003 (ip), vehicle: saline with Tween-80 96 % of control

CCOC(=O)N1CCc2nc3ccccc3cc21
inactive: [5] 100 % of control | [6] 90 % of control | [7] 93 % of control

NNC(=O)CNc1ccc(F)cc1Cl
inactive: [12] 101 % of control | [13] 105 % of control

Nn1c(=O)[nH][nH]c1=O
inactive: [14] 113 % of control | [1] 97 % of control and 109 % of control | dose: 200.0 mg/kg/injection, schedule: Q01DX009 (ip), vehicle: Klucel (hydroxypropylcellulose) (HPC) 97 % of control | [2] 105 % of control and 91 % of control | [3] 109 % of control

OC1c2ccccc2-c2ccc(Cl)cc21 (stereo unspecified)
inactive: dose: 25.0 mg/kg/injection, schedule: Q01DX009 (ip), vehicle: saline with Tween-80 97 % of control | [17] 106 % of control | [15] 100 % of control and 90 % of control

O=C(O)/C=C/C(=O)Nc1ccc(N=Nc2ccccc2)cc1
inactive: [17] 101 % of control | [15] 92 % of control | [16] 89 % of control

CCN(CC)CCOC(=S)Nc1ccccc1
inactive: dose: 25.0 mg/kg/injection, schedule: Q01DX009 (ip), vehicle: saline 100 % of control | dose: 50.0 mg/kg/injection, schedule: Q01DX009 (ip), vehicle: saline 109 % of control | [11] 96 % of control and 105 % of control

C/C(CCCCl)=N/NC(N)=S
inactive: dose: 6.25 mg/kg/injection, schedule: Q01DX009 (ip), vehicle: saline 98 % of control | dose: 6.25 mg/kg/injection, schedule: Q04DX003 (ip), vehicle: saline with Tween-80 98 % of control | dose: 12.5 mg/kg/injection, schedule: Q01DX009 (ip), vehicle: saline 107 % of control | dose: 12.5 mg/kg/injection, schedule: Q04DX003 (ip), vehicle: saline with Tween-80 92 % of control | dose: 25.0 mg/kg/injection, schedule: Q04DX003 (ip), vehicle: saline with Tween-80 90 % of control | dose: 100.0 mg/kg/injection, schedule: Q01DX001 (ip), vehicle: acetone 100 % of control | dose: 200.0 mg/kg/injection, schedule: Q01DX001 (ip), vehicle: acetone 90 % of control

NC(=O)c1cc(NCCO)c([N+](=O)[O-])cc1[N+](=O)[O-]
inactive: [8] 104 % of control | [9] 100 % of control | [10] 96 % of control

O=C(Nc1ccc(F)c(Cl)c1)N(CCO)C1CCCCC1
inactive: [1] 101 % of control | [2] 100 % of control | [3] 92 % of control

O=C(Nc1cccc2ccccc12)OC1CCCCC1Br (stereo unspecified)
inactive: [18] 89 % of control | [19] 89 % of control

O=C(Nc1ccc2ccccc2c1)c1ccccc1
inactive: dose: 100.0 mg/kg/injection, schedule: Q01DX009 (ip), vehicle: saline sonified 104 % of control | [1] 97 % of control | dose: 200.0 mg/kg/injection, schedule: Q01DX009 (ip), vehicle: saline sonified 96 % of control | [2] 93 % of control | dose: 400.0 mg/kg/injection, schedule: Q01DX009 (ip), vehicle: saline sonified 93 % of control | [3] 92 % of control

CNC1CCCc2ccccc2C1O (stereo unspecified)
inactive: [4] 102 % of control

O=C(O)c1ccccc1C(=O)Nc1ccccc1[N+](=O)[O-]
inactive: dose: 100.0 mg/kg/injection, schedule: Q01DX001 (ip), vehicle: saline with Tween-80 91 % of control | [18] 91 % of control | [19] 91 % of control

N#C/C(=C\c1c(O)ccc2ccccc12)c1ccc([N+](=O)[O-])cc1
inactive: dose: 66.0 mg/kg/injection, schedule: Q01DX009 (ip), vehicle: saline with Tween-80 89 % of control | [15] 91 % of control | dose: 150.0 mg/kg/injection, schedule: Q01DX009 (ip), vehicle: saline with Tween-80 86 % of control
